One block for each molecule: values may come before it.
Columns and labels:
[1] = Intravenous and oral dosing pharmacokinetic screen, plasma concentration by LC/MS/MS; set-up: species or system C57BL/6 mice; settings: in vivo; for concentration at 0.083 h / concentration at 0.25 h / concentration at 0.5 h / concentration at 2 h / concentration at 4 h / concentration at 1 h / concentration at 8 h / concentration at 24 h: B02 concentration
Protocol: (§1) Tucaresol, Compound B02, Compound C01, Compound C02-1, and Compound C02 were dosed once, by IV bolus (3 mg/kg in 20% hydroxyprophyl-13-cyclodextrin with 1 eq NaOH) or PO (10 mg/kg in 1% carboxymethylcellulose/0.1% tween-80 in water), to non-fasted male C57BL/6 mice. Animals were bled from the dorsal metatarsal vein (from the heart for 24 hour time point) for K2-EDTA plasma 0.083 (for IV only), 0.25, 0.5, 1, 2, 4, 8, and 24 hours after dosing. The plasma concentration of the dosed tucaresol or compound were measured by LC/MS/MS (I-CMS-8060 instrument for MS). PK parameters were then calculated with WinNonlin 6.1. For Compounds C01, CO2 and CO2-1, stability in C57BL/6 K2EDTA plasma was also evaluated at 22° C. over 1 hour by utilizing LC.

[2] = Stability in C57BL/6 K2EDTA plasma at 22° C. over 1 hour by LC; type: in vitro ADME, mouse; settings: for mouse plasma stability (in words): 22° C.; for Remaining %: mouse plasma, 2,000 ng/mL, 22°C
Protocol: as §1
Compounds C01 and C02-1 are unstable at 22° C.

[3] = male, C57BL/6, mouse, iv, 3 mg/kg, 0.083 h
[4] = male, C57BL/6, mouse, iv, 3 mg/kg, 0.25 h
[5] = male, C57BL/6, mouse, iv, 3 mg/kg, 2 h
[6] = male, C57BL/6, mouse, iv, 3 mg/kg, 4 h
[7] = male, C57BL/6, mouse, iv, 3 mg/kg, 8 h
[8] = male, C57BL/6, mouse, iv, 3 mg/kg
[9] = male, C57BL/6, mouse, iv, 3 mg/kg, Mean
[10] = male, C57BL/6, mouse, po, 10 mg/kg, 0.25 h
[11] = male, C57BL/6, mouse, po, 10 mg/kg, 0.5 h
[12] = male, C57BL/6, mouse, po, 10 mg/kg, 1 h
[13] = male, C57BL/6, mouse, po, 10 mg/kg, 2 h
[14] = male, C57BL/6, mouse, po, 10 mg/kg, 4 h
[15] = male, C57BL/6, mouse, po, 10 mg/kg, 8 h
[16] = male, C57BL/6, mouse, po, 10 mg/kg
[17] = male, C57BL/6, mouse, po, 10 mg/kg, Mean
[18] = male, C57BL/6, mouse, iv, 3 mg/kg, 0.5 h
[19] = male, C57BL/6, mouse, iv, 3 mg/kg, 1 h

AUClast/D ([1]; male, C57BL/6, mouse): 24.3 ng·h/mL per mg/kg
T1/2 ([1]; male, C57BL/6, mouse): 5.49 h
Tmax ([1]; male, C57BL/6, mouse): 5.42 h
Tucaresol plasma concentration, Mean [1, 3]: 12.5 ng/mL
Tucaresol plasma concentration, Mean [1, 4]: 6.01 ng/mL
Tucaresol plasma concentration, Mean [1, 5]: 4.30 ng/mL
Tucaresol plasma concentration, Mean [1, 6]: 7.04 ng/mL
Tucaresol plasma concentration, Mean [1, 7]: 8.52 ng/mL
concentration at 0.083 h [1, 8]: 3220 ng/mL
concentration at 0.25 h [1, 8]: 1740 ng/mL
concentration at 0.5 h [1, 8]: 335 ng/mL
concentration at 2 h [1, 8]: 179 ng/mL
concentration at 4 h [1, 8]: 43.4 ng/mL
concentration at 0.083 h [1, 9]: 3050 ng/mL
concentration at 0.25 h [1, 9]: 1340 ng/mL
concentration at 0.5 h [1, 9]: 283 ng/mL
concentration at 1 h [1, 9]: 48.3 ng/mL
concentration at 2 h [1, 9]: 187 ng/mL
concentration at 4 h [1, 9]: 54 ng/mL
concentration at 8 h [1, 9]: 18 ng/mL
Tucaresol plasma concentration, Mean [1, 10]: 16.2 ng/mL
Tucaresol plasma concentration, Mean [1, 11]: 9.3 ng/mL
Tucaresol plasma concentration, Mean [1, 12]: 5.54 ng/mL
Tucaresol plasma concentration, Mean [1, 13]: 11.0 ng/mL
Tucaresol plasma concentration, Mean [1, 14]: 15.7 ng/mL
Tucaresol plasma concentration, Mean [1, 15]: 28.4 ng/mL
concentration at 0.25 h [1, 16]: 5780 ng/mL
concentration at 0.5 h [1, 16]: 3370 ng/mL
concentration at 4 h [1, 16]: 468 ng/mL
concentration at 8 h [1, 16]: 114 ng/mL
concentration at 24 h [1, 16]: 6.93 ng/mL
concentration at 0.25 h [1, 17]: 4260 ng/mL
concentration at 0.5 h [1, 17]: 2650 ng/mL
concentration at 1 h [1, 17]: 674 ng/mL
concentration at 2 h [1, 17]: 478 ng/mL
concentration at 4 h [1, 17]: 412 ng/mL
concentration at 8 h [1, 17]: 152 ng/mL
concentration at 24 h [1, 17]: 10.5 ng/mL
Compound: CO/N=C/c1c(O)cccc1OCc1ccc(C(=O)O)cc1 [Compound B02, (E)−4+((3-hydroxy-2-((methoxyimino)methyl)phenoxy)methyl)benzoic acid]

Compound: CC(=O)Oc1cccc(OCc2ccc(C(=O)O)cc2)c1C=O [Compound C01, 4-((3-acetoxy-2-formylphenoxy)methyl)benzoic acid]
mouse plasma stability (in words) [2]: unstable
Remaining % ([2]; 0 min): 100%
Remaining % ([2]; 5 min): 15.0%
Remaining % ([2]; 15 min): 1.07%
AUClast/D ([1]; male, C57BL/6, mouse): 4.24 ng·h/mL per mg/kg
F ([1]; male, C57BL/6, mouse): 0.333%
T1/2 ([1]; male, C57BL/6, mouse): 4.24 h
Tmax ([1]; male, C57BL/6, mouse): 0.333 h
Concentration, Compound B02 IV Plasma concentration-time data, Mean [1, 3]: 1021 ng/mL
Concentration, Compound B02 IV Plasma concentration-time data, Mean [1, 4]: 691 ng/mL
Concentration, Compound B02 IV Plasma concentration-time data, Mean [1, 18]: 465 ng/mL
Concentration, Compound B02 IV Plasma concentration-time data, Mean [1, 19]: 316 ng/mL
Concentration, Compound B02 IV Plasma concentration-time data, Mean [1, 5]: 201 ng/mL
Concentration, Compound B02 IV Plasma concentration-time data, Mean [1, 6]: 116 ng/mL
Concentration, Compound B02 IV Plasma concentration-time data, Mean [1, 7]: 60.9 ng/mL
tucaresol exposure in plasma (in words) ([1]; male, C57BL/6, mouse, po): significant but lower tucaresol exposure than Compound C02 dosing
Concentration, Compound B02 PO Plasma concentration-time data, Mean [1, 10]: 643 ng/mL
Concentration, Compound B02 PO Plasma concentration-time data, Mean [1, 11]: 512 ng/mL
Concentration, Compound B02 PO Plasma concentration-time data, Mean [1, 12]: 386 ng/mL
Concentration, Compound B02 PO Plasma concentration-time data, Mean [1, 13]: 302 ng/mL
Concentration, Compound B02 PO Plasma concentration-time data, Mean [1, 14]: 191 ng/mL
Concentration, Compound B02 PO Plasma concentration-time data, Mean [1, 15]: 107 ng/mL
Concentration, Compound B02 PO Plasma concentration-time data, Mean ([1]; male, C57BL/6, mouse, po, 10 mg/kg, 24 h): 7.50 ng/mL
tucaresol exposure in plasma (in words) ([1]; mouse, po): significant exposure to tucaresol in plasma

mouse plasma stability (in words) [2]: unstable
Remaining % ([2]; 0 min): 100%
Remaining % ([2]; 5 min): 18.9%
Remaining % ([2]; 15 min): 16.7%
Remaining % ([2]; 30 min): 6.56%
Remaining % ([2]; 60 min): 2.37%
AUClast/D ([1]; male, C57BL/6, mouse): 161 ng·h/mL per mg/kg
T1/2 ([1]; male, C57BL/6, mouse): 13.8 h
Tmax ([1]; male, C57BL/6, mouse): 3.33 h
Tucaresol concentration, Mean [1, 3]: 17.3 ng/mL
Tucaresol concentration, Mean [1, 4]: 52.9 ng/mL
Tucaresol concentration, Mean [1, 18]: 79.9 ng/mL
Tucaresol concentration, Mean [1, 19]: 60.5 ng/mL
Tucaresol concentration, Mean [1, 5]: 49.3 ng/mL
Tucaresol concentration, Mean [1, 6]: 36.0 ng/mL
Tucaresol concentration, Mean [1, 7]: 18.2 ng/mL
Tucaresol concentration, Mean [1, 11]: 15.9 ng/mL
Tucaresol concentration, Mean [1, 12]: 49.9 ng/mL
Tucaresol concentration, Mean [1, 13]: 103 ng/mL
Tucaresol concentration, Mean [1, 14]: 114 ng/mL
Tucaresol concentration, Mean [1, 15]: 83.0 ng/mL
Compound: COC(=O)c1ccc(COc2cccc(O)c2C=O)cc1 [Compound C02-1, methyl 4-((2-formyl-3-hydroxyphenoxy)methyl)benzoate]

Source: patent US20220387365A1, “TUCARESOL DERIVATIVES AND USES THEREOF” (BeyondSpring Pharmaceuticals, Inc., priority 2019, published 2022)
